According to patent publication EP0942911B1, “BENZOPYRANOPYRROLE AND BENZOPYRANOPYRIDINE ALPHA-1 ADRENERGIC COMPOUNDS” (Abbott Laboratories, priority 1996, dated 1998):
Structures can show the parent of a compound that is named as a salt. Where two headings read alike, the source gives them in different places.

Experiments:
Assay in all cases: biochemical
α-1b adrenoreceptor = molecular target: T1, α-1b adrenoreceptor (Mesocricetus auratus, UniProt P18841); format: binding, hamster; settings: read-out: Radioligand Binding (Ki, nM) 1b (Hamster)
T1 sequence (P18841 1-515): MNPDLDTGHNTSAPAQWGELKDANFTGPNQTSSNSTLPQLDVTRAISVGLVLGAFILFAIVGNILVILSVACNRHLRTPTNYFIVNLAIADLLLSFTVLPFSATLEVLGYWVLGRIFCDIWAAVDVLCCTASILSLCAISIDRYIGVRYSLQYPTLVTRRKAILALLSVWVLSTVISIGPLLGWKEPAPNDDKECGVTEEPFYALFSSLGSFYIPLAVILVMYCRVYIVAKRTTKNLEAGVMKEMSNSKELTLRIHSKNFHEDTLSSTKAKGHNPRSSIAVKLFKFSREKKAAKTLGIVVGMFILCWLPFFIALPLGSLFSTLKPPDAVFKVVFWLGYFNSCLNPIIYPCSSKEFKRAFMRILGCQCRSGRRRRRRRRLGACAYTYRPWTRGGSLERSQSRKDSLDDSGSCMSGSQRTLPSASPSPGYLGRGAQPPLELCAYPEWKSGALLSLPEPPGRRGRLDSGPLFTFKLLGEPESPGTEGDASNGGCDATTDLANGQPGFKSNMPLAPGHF
Description: (§1) The cDNA clones encoding the α-1 adrenoreceptors (α-1a, α-1b, and α-1d) were obtained from TULCO (Triangle Universities Licensing Consortium, Research Triangle Park, NC) and inserted into the eukaryotic expression vector SnaB30. In this vector, expression of the adrenoreceptor gene is under the transcriptional control of an SV40 early promoter. Positive drug selection is provided by a neomycin-resistance gene. Mouse fibroblast cells (LTK) were transfected with the α1 expression plasmids and grown in Dulbecco's modified Eagle's medium (DMEM) containing 10% fetal calf serum and 30 µM G418. Stable G418-resistant parental lines were generated, with successful expression of adrenoreceptor protein monitored using radioligand binding techniques. Stable single cell clones derived from the parental lines were screened in adrenoreceptor binding assays to identify clones having high adrenoreceptor density. Roller bottle cultures of the cloned lines were used to provide cell membranes for subsequent adrenoreceptor binding characterization studies. A cell line containing the SnaB30 vector expressing the human erythropoietin gene served as a negative control.
(§2) For adrenoreceptor binding assays, large scale membrane preparations were utilized in which 6 million cells were seeded into small (450 cm^2) Corning tissue culture roller bottles. 200 mL of DMEM containing 10% fetal calf serum and 300 µM G418 were added to each roller bottle. A 95% air / 5% CO2 gas mixture (sterile) was injected into each roller bottle prior to sealing. The bottles were then incubated at 37 °C on a roller rack for 5 days. Cells were re-fed with fresh medium after 3 days in culture.
(§3) On the fifth day of culture, growth medium was removed from cells grown in roller bottles, and the cells were washed twice with PBS (Sigma, 120 mM NaCl, 2.7 mM KCl, 10 mM Na2HPO4-NaH2PO4, pH = 7.4). Cells were detached from the roller bottles by incubating for 15 minutes at 37 °C in a Tris-EDTA solution (10 mM Tris, 100 mM NaCl, 1 mM EDTA, pH = 7.4). The cell suspension from each roller bottle was decanted into tared centrifuge tubes and kept on ice. An aliquot of each cell suspension was generally taken for cell counting. Cells were centrifuged at 3000 X G for 5 min at 2-4 °C, washed with PBS and recentrifuged. The supernatant was decanted and the pellet weighed to determine the wet weight of cells. Cells were washed a final time in 40 vol 5 mM Tris-HCl, 5 mM EDTA, pH = 7.7, and centrifuged at 40,000 X G for 10 minutes. Cells were homogenized in 10 mL of 50 mM Tris-HCl, 5 mM EDTA (pH = 7.4) and diluted to 40 mL/tube. Homogenates were centrifuged at 40,000 X G for 10 minutes. The supernatant was decanted and the pellets rehomogenized in 50 mM Tris-HCl (pH = 7.4) and centrifuged as before. The supernatant was decanted and the homogenate resuspended in 6.25 volumes (per gram wet weight) of 50 mM Tris-HCl and aliquots of the pooled homogenates frozen in liquid N2 and stored at -70 °C until the time of assay. Rat submaxillary glands were used for α-1A adrenoreceptors and were prepared essentially as described (Michel, A. D., Loury, D. N. and Whiting, R. L., Brit. J. Pharmacol. 98: 83-889 (1989)).
(§4) Receptor binding assays for α-1 adrenoreceptors were performed essentially as described by Greengrass and Bremner (Eur. J. Pharmacol. 55: 323-326 (1979)). […] Radioactivity was determined by standard liquid scintillation techniques. Data were analyzed as previously described (Hancock, A. A., Kyncl, J. J., Martin, Y. C. and DeBernardis, J. F., J. Receptor Res. 8: 23-46 (1988)).

α-1a adrenoreceptor = molecular target: T2, α-1a adrenoreceptor (Bos taurus, UniProt P18130); format: binding, bovine; settings: read-out: Radioligand Binding (Ki, nM) 1a (Bovine)
T2 sequence (P18130 1-466): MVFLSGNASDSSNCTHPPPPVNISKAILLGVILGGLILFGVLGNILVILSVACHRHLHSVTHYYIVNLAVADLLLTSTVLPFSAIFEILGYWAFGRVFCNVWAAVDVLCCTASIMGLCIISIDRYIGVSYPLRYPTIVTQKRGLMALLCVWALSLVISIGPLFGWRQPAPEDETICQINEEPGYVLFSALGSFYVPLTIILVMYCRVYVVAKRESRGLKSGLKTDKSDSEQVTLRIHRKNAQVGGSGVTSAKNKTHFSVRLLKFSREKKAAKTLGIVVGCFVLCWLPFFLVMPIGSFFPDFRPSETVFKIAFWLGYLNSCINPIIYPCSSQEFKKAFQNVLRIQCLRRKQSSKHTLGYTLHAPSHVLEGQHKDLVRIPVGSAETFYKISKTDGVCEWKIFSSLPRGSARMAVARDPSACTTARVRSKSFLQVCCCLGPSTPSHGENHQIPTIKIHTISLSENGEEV
Description: as §1, §2, §3, §4

[1] = molecular target: T3, α-1A adrenoreceptor (rat submaxillary gland) (Rattus norvegicus, UniProt P43140); format: binding; settings: read-out: Radioligand Binding (Ki, nM) 1A (Rat)
T3 sequence (P43140 1-466): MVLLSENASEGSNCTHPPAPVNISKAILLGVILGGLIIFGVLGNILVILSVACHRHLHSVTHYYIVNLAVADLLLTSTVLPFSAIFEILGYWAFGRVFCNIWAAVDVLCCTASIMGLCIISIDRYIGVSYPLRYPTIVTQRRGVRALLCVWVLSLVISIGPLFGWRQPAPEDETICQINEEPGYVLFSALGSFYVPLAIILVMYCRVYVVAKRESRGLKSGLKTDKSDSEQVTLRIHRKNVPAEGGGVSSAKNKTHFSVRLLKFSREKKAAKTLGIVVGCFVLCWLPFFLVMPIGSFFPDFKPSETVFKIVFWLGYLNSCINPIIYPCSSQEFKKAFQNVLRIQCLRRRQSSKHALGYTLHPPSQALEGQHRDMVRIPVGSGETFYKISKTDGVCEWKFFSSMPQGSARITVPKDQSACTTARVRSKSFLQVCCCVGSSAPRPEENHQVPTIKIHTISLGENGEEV
Description: Additionally, binding affinity against the pharrnacologically defined α-1A adrenoreceptor (rat submaxillary gland) was measured.
as §3, §4

α-1d adrenoreceptor = molecular target: T4, α-1d adrenoreceptor (Rattus norvegicus, UniProt P23944); format: binding; settings: read-out: Radioligand Binding (Ki, nM) 1d (Rat)
T4 sequence (P23944 1-561): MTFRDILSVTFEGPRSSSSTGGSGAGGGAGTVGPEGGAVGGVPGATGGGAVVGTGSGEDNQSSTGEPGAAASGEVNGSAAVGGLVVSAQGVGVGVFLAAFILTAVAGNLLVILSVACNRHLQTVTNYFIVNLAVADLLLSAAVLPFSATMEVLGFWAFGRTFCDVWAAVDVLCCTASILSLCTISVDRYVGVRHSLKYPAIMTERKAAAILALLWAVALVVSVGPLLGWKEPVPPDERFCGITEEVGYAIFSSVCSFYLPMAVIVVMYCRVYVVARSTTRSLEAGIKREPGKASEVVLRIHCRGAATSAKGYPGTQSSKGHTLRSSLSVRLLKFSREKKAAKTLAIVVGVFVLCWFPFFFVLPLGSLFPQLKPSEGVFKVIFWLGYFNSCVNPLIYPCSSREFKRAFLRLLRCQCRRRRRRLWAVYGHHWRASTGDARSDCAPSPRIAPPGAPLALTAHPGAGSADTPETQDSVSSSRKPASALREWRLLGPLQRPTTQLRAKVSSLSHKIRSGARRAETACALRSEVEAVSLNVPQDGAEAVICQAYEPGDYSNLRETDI
Description: as §1, §2, §3, §4

[2] = [3H]-prazosin radioligand, cloned receptor in LTK cell membranes
[3] = [3H]-prazosin radioligand, rat submaxillary gland membranes

Row | SMILES | Ki (α-1b adrenoreceptor; [2]) [nM] | Ki (α-1a adrenoreceptor; [2]) [nM] | Ki [1, 3] [nM] | Ki (α-1d adrenoreceptor; [2]) [nM] | Ki (α-1b adrenoreceptor) [nM] | Ki (α-1a adrenoreceptor) [nM] | Ki [1] [nM] | Ki (α-1d adrenoreceptor) [nM]
1 | COc1cccc2c1[C@@H]1CN(CCCCn3c(=O)[nH]c4c(sc5ncc(-c6cccnc6)nc54)c3=O)C[C@H]1CO2 [Example 60, 3-[4-((3aS,9bR)-trans-9-Methoxy-1,2,3,3a,4,9b-hexahydro-[1]-benzopyrano[3,4-c]pyrrol-2-yl)butyl]-8-(3-pyridyl)-pyrazino[2',3':4,5]thieno[3,2-d]pyrimidine-2,4(1H,3H)-dione dihydrochloride] | 14.2 | 0.078 | 0.187 | 1.82 |  |  |  | 
2 | COc1cccc2c1[C@H]1CCN(CCCCn3c(=O)[nH]c4c(sc5cccnc54)c3=O)C[C@@H]1CO2 [Example 94, 3-[4-((4aR,10bS)-trans-10-Methoxy-1,3,4,4a,5,10b-hexahydro-2H-[1]-benzopyrano[3,4-c]pyrido-3-yl)butyl]-pyrido[2',3':4,5]thieno[3,2-d]pyrimidine-2,4(1H,3H)-dione dihydrochloride] | 1.97 | 0.097 | 0.185 | 0.361 |  |  |  | 
3 | COc1cccc2c1[C@@H]1CN(CCCCn3c(=O)[nH]c4c(sc5nccnc54)c3=O)C[C@@H]1CO2 [Example 15, 3-[4-((3aR,9bR)-cis-9-Methoxy-1,2,3,3a,4,9b-hexahydro-[1]-benzopyrano[3,4-c]pyrrol-2-yl)butyl]-pyrazino[2',3':4,5]thieno[3,2-d]pyrimidine-2,4(1H,3H)-dione dihydrochloride] | 4.41 | 0.068 | 0.227 | 0.928 |  |  |  | 
4 | COc1ccc2sc3c(=O)n(CCCCN4CC[C@H]5c6c(OC)cccc6OC[C@@H]5C4)c(=O)[nH]c3c2n1 [Example 98, 3-[4-((4aS,10bR)-trans-10-Methoxy-1,3,4,4a,5,10b-hexahydro-2H-[1]-benzopyrano[3,4-c]pyrido-3-yl)butyl]-8-methoxy-pyrido[2',3':4,5]thieno[3,2-d]pyrimidine-2,4(1H,3H)-dione hydrochloride] | 2.65 | 0.121 | 1.02 | 0.324 |  |  |  | 
5 | COc1cccc2c1[C@H]1CN(CCCCn3c(=O)[nH]c4c(sc5c(Cl)ccnc54)c3=O)C[C@@H]1CO2 [Example 5, 3-[4-((3aR,9bS)-trans-9-Methoxy-1,2,3,3a,4,9b-hexahydro-[1]-benzopyrano[3,4-c]pyrrol-2-yl)butyl]-6-chloro-pyrido[2',3':4,5]thieno[3,2-d]pyrimidine-2,4(1H,3H)-dione dihydrochloride] | 2.01 | 0.086 | 0.268 | 0.638 |  |  |  | 
6 | COc1cccc2c1[C@@H]1CN(CCCCn3c(=O)[nH]c4c(sc5ccccc54)c3=O)C[C@@H]1CO2 [Example 22, 3-[4-((3aR,9bR)-cis-9-Methoxy-1,2,3,3a,4,9b-hexahydro-[1]-benzopyrano[3,4-c]pyrrol-2-yl)butyl]-[1]benzthieno[3,2-d]pyrimidine-2,4(1H,3H)-dione hydrochloride] | 1.16 | 0.031 | 0.196 | 0.138 |  |  |  | 
7 | O=c1[nH]c2c(sc3cccnc32)c(=O)n1CCCCN1C[C@@H]2COc3ccccc3[C@H]2C1 (racemic) [Example 71, 3-[4-((±)-trans-1,2,3,3a,4,9b-hexahydro-[1]-benzopyrano[3,4-c]pyrrol-2-yl)butyl]-pyrido[2',3':4,5]thieno[3,2-d]pyrimidine-2,4(1H,3H)-dione hydrochloride] |  |  |  |  | 0.634 | 0.068 | 0.065 | 0.169
8 | COc1cccc2c1[C@H]1CN(CCCCn3c(=O)[nH]c4c(sc5ncc(Cl)nc54)c3=O)C[C@@H]1CO2 [Example 10, 3-[4-((3aR,9bS)-trans-9-Methoxy-1,2,3,3a,4,9b-hexahydro-[1]-benzopyrano[3,4-c]pyrrol-2-yl)butyl]-8-chloro-pyrazino[2',3':4,5]thieno[3,2-d]pyrimidine-2,4(1H,3H)-dione hydrochloride] | 10.4 | 0.406 | 0.662 | 1.6 |  |  |  | 
